Test results taken from patent publication US20150202167A1, “Trans-Clomiphene Formulations and Uses Thereof” (REPROS THERAPEUTICS INC., priority 2012, published 2015).
Blank lines part the entries; values can stand above or below the compound they belong to.

Key:
[1] = noted by Ernst et al.; cited from earlier work
[2] = cited from earlier work
[3] = Particle size analysis by laser diffraction (Malvern Mastersizer 2000); format: physicochemical; details: for d10: 10% of the total volume of particles is less than the indicated size; for d10 / d50 / d90: final method conditions, 0.1% (w/v) Span 85 in hexane; for d50: 50% of the total volume of particles is less than the indicated size; for d90: 90% of the total volume of particles is less than the indicated size
From the text: Trans-clomiphene is characterized for size using an instrument adapted to measure equivalent spherical volume diameter, such as a Malvern Mastersizer 2000 laser diffraction particle size analyzer or equivalent instrument. After being characterized for size, the trans-clomiphene is then milled, if necessary, preferably using a pin mill under suitable conditions of mill rotation rate and feed rate, to bring the particle size value within the above mentioned limits according to the invention. The efficiency of milling is checked by sampling using a Malvern Mastersizer 2000 laser diffraction particle size analyzer and the final particle size is checked in a similar manner.
The values found from characterizing a large number of “unknown” particles can be plotted frequency vs. diameter. This gives a characteristic curve representing size distribution of the sample, i.e., cumulative percentage under size distribution curve. Values from this can be read off directly or plotted on log-probability paper to give an appropriate straight line. The mean equivalent spherical volume diameter is the 50% undersize value. The mean equivalent spherical volume diameter found is thus a statistical representation of a theoretical particle having the same property as the “unknown” particle. The following is a description by way of example.
Repeated particle size measurements of the sample dispersed in 0.1% (w/v) Span™ 85 in hexane were collected while recirculating over the course of approximately five minutes with a pump speed of 1000 rpm. Particle size (d10, d50, d90) was plotted versus the recirculation time. Values for both the d10 and d50 fell within a narrow range for the duration. The decrease in the d90 primarily occurred over the first 90 seconds with a gradual decrease thereafter.
Repeated particle size measurements of the sample were collected while recirculating for 90 seconds with increasing pump speeds to examine the effect of pump speed on particle size. […] A pump speed of 1500 rpm was selected to optimize both dispersion of agglomerates and suspension of the larger particles and to minimize attrition of the blades and needles.
One particle size measurement of each sample of trans-clomiphene citrate was collected using the final method conditions. Three of the lots shared a similar bimodal particle size distribution whereas one lot contained a third mode consisting of much larger particles. The remaining lot of was bimodal but reflected much larger particle sizes than the distributions of the earlier three lots with bimodal distributions.
Particle size data was acquired using a Malvern Instruments MS2000 equipped with a Hydro 2000 μP dispersion unit. Data was collected and analyzed using Mastersizer 2000 v. 5.60 software using volume based measurements. NIST-traceable glass beads were used as the reference standard.
Particle size of trans-clomiphene citrate using the final method conditions is reproduced below: […]

[4] = Evaluation of dispersants for trans-clomiphene citrate; format: physicochemical; details: 0.01% (w/v) Tween 20 (polysorbate 20) in water
Protocol: 0.1% (w/v) Lecithin in Isopar G™, 0.1% (w/v) Span™ 85 (sorbitane trioleate) in hexane, and 0.01% (w/v) Tween® 20 (polysorbate 20) in water were evaluated as dispersants for trans-clomiphene citrate. Samples suspended easily in each of the two organic dispersants and settled out of suspension slowly. […] Samples dispersed in the Isopar G™-based and hexane-based dispersants were examined microscopically. […] 0.1% (w/v) Span™ 85 in hexane was selected for further analysis.

Compound: CCN(CC)CCOc1ccc(/C(=C(/Cl)c2ccccc2)c2ccccc2)cc1 (single isomer, unassigned) [trans-isomer, trans-2-(p-(2-chloro-1,2-diphenylvinyl)phenoxy)triethylamine]
estrogenic / antiestrogenic character [1]: antiestrogenic

Compound: CCN(CC)CCOc1ccc(C(=C(Cl)c2ccccc2)c2ccccc2)cc1 [clomiphene]
FSH, LH ([2]; both young and old men after treatment with clomiphene): increases
free and total testosterone ([2]; men, young men showing significant increases): increases

d10 [3]: 8.058 μm
d50 [3]: 106.743 μm
d90 [3]: 318.464 μm
Compound: CCN(CC)CCOc1ccc(/C(=C(/Cl)c2ccccc2)c2ccccc2)cc1.O=C(O)CC(O)(CC(=O)O)C(=O)O [compound 16204]

d10 [3]: 4.038 μm
d50 [3]: 13.902 μm
d90 [3]: 218.573 μm
Compound: CCN(CC)CCOc1ccc(/C(=C(/Cl)c2ccccc2)c2ccccc2)cc1.O=C(O)CC(O)(CC(=O)O)C(=O)O [compound 24712]

d10 [3]: 4.794 μm
d50 [3]: 13.418 μm
d90 [3]: 70.289 μm
Compound: CCN(CC)CCOc1ccc(/C(=C(/Cl)c2ccccc2)c2ccccc2)cc1.O=C(O)CC(O)(CC(=O)O)C(=O)O [compound 24867]

d10 [3]: 4.850 μm
d50 [3]: 13.455 μm
d90 [3]: 76.891 μm
Compound: CCN(CC)CCOc1ccc(/C(=C(/Cl)c2ccccc2)c2ccccc2)cc1.O=C(O)CC(O)(CC(=O)O)C(=O)O [compound 31249]

d10 [3]: 3.373 μm
d50 [3]: 9.664 μm
d90 [3]: 44.995 μm
Vol under % ([3]; size 0.010 μm): 0.00%
Vol under % ([3]; size 0.011 μm): 0.00%
Vol under % ([3]; size 0.013 μm): 0.00%
Vol under % ([3]; size 0.015 μm): 0.00%
Vol under % ([3]; size 0.017 μm): 0.00%
Vol under % ([3]; size 0.020 μm): 0.00%
Vol under % ([3]; size 0.023 μm): 0.00%
Vol under % ([3]; size 0.026 μm): 0.00%
Vol under % ([3]; size 0.030 μm): 0.00%
Vol under % ([3]; size 0.035 μm): 0.00%
Vol under % ([3]; size 0.040 μm): 0.00%
Vol under % ([3]; size 0.046 μm): 0.00%
Vol under % ([3]; size 0.052 μm): 0.00%
Vol under % ([3]; size 0.060 μm): 0.00%
Vol under % ([3]; size 0.069 μm): 0.00%
Vol under % ([3]; size 0.079 μm): 0.00%
Vol under % ([3]; size 0.091 μm): 0.00%
Vol under % ([3]; size 0.105 μm): 0.00%
Vol under % ([3]; size 0.120 μm): 0.00%
Vol under % ([3]; size 0.138 μm): 0.00%
Vol under % ([3]; size 0.158 μm): 0.00%
Vol under % ([3]; size 0.182 μm): 0.00%
Vol under % ([3]; size 0.209 μm): 0.00%
Vol under % ([3]; size 0.240 μm): 0.00%
Vol under % ([3]; size 0.275 μm): 0.00%
Vol under % ([3]; size 0.316 μm): 0.00%
Vol under % ([3]; size 0.363 μm): 0.00%
Vol under % ([3]; size 0.417 μm): 0.00%
Vol under % ([3]; size 0.479 μm): 0.00%
Vol under % ([3]; size 0.550 μm): 0.00%
Vol under % ([3]; size 0.631 μm): 0.00%
Vol under % ([3]; size 0.724 μm): 0.00%
Vol under % ([3]; size 0.832 μm): 0.00%
Vol under % ([3]; size 0.965 μm): 0.02%
Vol under % ([3]; size 1.096 μm): 0.10%
Vol under % ([3]; size 1.259 μm): 0.28%
Vol under % ([3]; size 1.445 μm): 0.60%
Vol under % ([3]; size 1.660 μm): 1.12%
Vol under % ([3]; size 1.905 μm): 1.93%
Vol under % ([3]; size 2.188 μm): 3.10%
Vol under % ([3]; size 2.512 μm): 4.72%
Vol under % ([3]; size 2.884 μm): 6.86%
Vol under % ([3]; size 3.311 μm): 9.59%
Vol under % ([3]; size 3.802 μm): 12.94%
Vol under % ([3]; size 4.385 μm): 16.94%
Vol under % ([3]; size 5.012 μm): 21.58%
Vol under % ([3]; size 5.754 μm): 26.82%
Vol under % ([3]; size 6.607 μm): 32.58%
Vol under % ([3]; size 7.586 μm): 38.74%
Vol under % ([3]; size 8.710 μm): 45.14%
Vol under % ([3]; size 10.00 μm): 51.59%
Vol under % ([3]; size 11.482 μm): 57.87%
Vol under % ([3]; size 13.183 μm): 63.80%
Vol under % ([3]; size 15.136 μm): 69.20%
Vol under % ([3]; size 17.378 μm): 73.95%
Vol under % ([3]; size 19.953 μm): 77.98%
Vol under % ([3]; size 22.909 μm): 81.29%
Vol under % ([3]; size 26.303 μm): 83.92%
Vol under % ([3]; size 30.200 μm): 85.99%
Vol under % ([3]; size 34.674 μm): 87.62%
Vol under % ([3]; size 39.811 μm): 88.95%
Vol under % ([3]; size 45.709 μm): 90.13%
Vol under % ([3]; size 52.481 μm): 91.28%
Vol under % ([3]; size 60.256 μm): 92.50%
Vol under % ([3]; size 69.183 μm): 93.84%
Vol under % ([3]; size 79.433 μm): 95.28%
Vol under % ([3]; size 91.201 μm): 96.72%
Vol under % ([3]; size 104.713 μm): 98.02%
Vol under % ([3]; size 120.226 μm): 99.04%
Vol under % ([3]; size 138.038 μm): 99.72%
Vol under % ([3]; size 158.489 μm): 99.97%
Vol under % ([3]; size 181.970 μm): 100.00%
Vol under % ([3]; size 208.930 μm): 100.00%
Vol under % ([3]; size 239.883 μm): 100.00%
Vol under % ([3]; size 275.423 μm): 100.00%
Vol under % ([3]; size 316.228 μm): 100.00%
Vol under % ([3]; size 363.078 μm): 100.00%
Vol under % ([3]; size 416.869 μm): 100.00%
Vol under % ([3]; size 478.630 μm): 100.00%
Vol under % ([3]; size 549.541 μm): 100.00%
Vol under % ([3]; size 630.957 μm): 100.00%
Vol under % ([3]; size 724.438 μm): 100.00%
Vol under % ([3]; size 831.764 μm): 100.00%
Vol under % ([3]; size 954.993 μm): 100.00%
Vol under % ([3]; size 1096.478 μm): 100.00%
Compound: CCN(CC)CCOc1ccc(/C(=C(/Cl)c2ccccc2)c2ccccc2)cc1.O=C(O)CC(O)(CC(=O)O)C(=O)O [compound 32305]

Dissolution of the sample suspended in aqueous dispersant [4]: Partial dissolution
Compound: trans-clomiphene citrate
